According to patent publication US20100272680A1, “Piperidinyl Cyclic Amido Antiviral Agents” (priority 2009, published 2010):

Legend:
Assay type in all cases: cell-based
[1] = test system: HCV replicon; test: Replicon assay (Table 2, genotype not stated); settings: Hepatitis C virus, Table 2, first measurement, luciferase activity after 48 hours
Experimental: Compounds were assayed for activity against HCV using the genotype 1a and 1b subgenomic replicon model systems. Stable cell lines bearing the genotype 1a and 1b replicons were used for screening of compounds. Both replicons are bicistonic and contain the firefly luciferase gene. The ET cell line is stably transfected with RNA transcripts harboring a I389luc-ubi-neo/NS3-3′/ET replicon with firefly luciferase-ubiquitin-neomycin phosphotransferase fusion protein and EMCV-IRES driven NS3-5B polyprotein containing the cell culture adaptive mutations (E1202G; T12801; K1846T) (Krieger at al, 2001 and unpublished). The genotype 1a replicon is a stable cell line licensed from Apath LLC, modified to contain the firefly luciferase gene. The cells were grown in DMEM, supplemented with 10% fetal calf serum, 2 mM Glutamine, Penicillin (100 IU/mL)/Streptomycin (100 μg/mL), 1× nonessential amino acids, and 250-500 μg/mL G418 (“Geneticin”). They were all available through Life Technologies (Bethesda, Md.). The cells were plated at 0.5×10^4 cells/well in 384 well plates containing compounds. The final concentration of compounds ranged between 0.03 μM to 50 μm and the final DMSO concentration of 0.5-1%.
Luciferase activity was measured 48 hours later by adding a Steady glo (Promega, Madison, Wis.). Percent inhibition of replication data was plotted relative to no compound control. Under the same condition, cytotoxicity of the compounds was determined using cell titer glo (Promega, Madison, Wis). IC50s were determined from a 10 point dose response curve using 3-4-fold serial dilution for each compound, which spans a concentration range >1000 fold. BioAssay determines the level of inhibition for each compound by normalizing cross-talk corrected plate values against the negative […] controls to determine Percent Inhibition:
These normalized values are exported to EC50 where they are plotted against the molar compound concentrations using the standard four parameter logistic equation: […]
Some EC50 measurements were repeated a second time and for both 1A and 1B genotypes after those reported in Table 2 for compounds 101-108 and the repeated data was reported in Table 3.

[2] = test system: HCV Genotype 1B Replicon; test: Replicon assay, genotype 1b subgenomic replicon (ET cell line), luciferase readout; settings: Hepatitis C virus, 48 h, Table 3; luciferase activity after 48 hours
In short: (§1)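 Stable luciferase replicon cells (1b: ET line with adaptive mutations; 1a: Apath-derived) plated at 0.5×10^4 cells/well with compound (final 0.03–50 μM, 0.5–1% DMSO). Luciferase read after 48 h; EC50 from 10-point, 3–4-fold dilution curves by four-parameter logistic fit, normalized to no-compound and no-cell controls.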

[3] = test system: HCV Genotype 1A Replicon; test: Replicon assay, genotype 1a subgenomic replicon, luciferase readout; settings: Hepatitis C virus, 48 h, Table 3; luciferase activity after 48 hours
In short: as §1

Row | SMILES | EC50 [1] [µM] | EC50 [2] [µM] | EC50 [3] [µM]
1 | O=C(c1nc2c(C(F)(F)F)cc(-c3ccccc3)cn2c1Cl)N1CCC(N2CCOC2=O)CC1 [Compound 104, 3-[1-(3-Chloro-6-phenyl-8-trifluoromethyl-imidazo[1,2-a]pyridine-2-carbonyl)-piperidin-4-yl]-oxazolidin-2-one] | 0.283 |  | 
2 | O=C(c1nc2c(C(F)(F)F)cc(-c3ccoc3)cn2c1Cl)N1CCC(N2CCOC2=O)CC1 [Compound 103, 3-[1-(3-Chloro-6-furan-3-yl-8-trifluoromethyl-imidazo[1,2-a]pyridine-2-carbonyl)-piperidin-4-yl]-oxazolidin-2-one] | 0.026 | 0.02 | 0.01
3 | O=C(c1nc2c(C(F)(F)F)cc(-c3cn[nH]c3)cn2c1Cl)N1CCC(N2CCOC2=O)CC1 [Compound 108, 3-{1-[3-Chloro-6-(1H-pyrazol-4-yl)-8-trifluoromethyl-imidazo [1,2-a]pyridine-2-carbonyl]-piperidin-4-yl}-oxazolidin-2-one] | 0.213 | 0.13 | 0.02
4 | O=C(c1nc2c(C(F)(F)F)cc(-c3cn[nH]c3)cn2c1Cl)N1CCC(N2CCCC2=O)CC1 [Compound 102, 1-{1-[3-Chloro-6-(1H-pyrazol-4-yl)-8-trifluoromethyl-imidazo[1,2-a]pyridine-2-carbonyl]-piperidin-4-yl}-pyrrolidin-2-one] | 0.683 |  | 
5 | O=C(c1nc2c(C(F)(F)F)cc(-c3ccoc3)cn2c1Cl)N1CCC(N2CCCC2=O)CC1 [Compound 101, 1-[1-(3-Chloro-6-furan-3-yl-8-trifluoromethyl-imidazo[1,2-a]pyridine-2-carbonyl)-piperidin-4-yl]-pyrrolidin-2-one] | 0.057 |  | 
6 | O=C(c1nc2c(C(F)(F)F)cc(Br)cn2c1Cl)N1CCC(N2CCOC2=O)CC1 [Compound 105, 3-[1-(6-Bromo-3-chloro-8-trifluoromethyl-imidazo[1,2-a]pyridine-2-carbonyl)-piperidin-4-yl]-oxazolidin-2-one] | 0.071 | 0.04 | 0.03
7 | C=C(C)c1cc(C(F)(F)F)c2nc(C(=O)N3CCC(N4CCOC4=O)CC3)c(Cl)n2c1 [Compound 106, 3-[1-(3-Chloro-6-isopropenyl-8-trifluoromethyl-imidazo[1,2-a]pyridine-2-carbonyl)-piperidin-4-yl]-oxazolidin-2-one] | 0.005 | 0.02 | 0.01
8 | O=C(c1nc2c(C(F)(F)F)cc(C3=CCCC3)cn2c1Cl)N1CCC(N2CCOC2=O)CC1 [Compound 107, 3-[1-(3-Chloro-6-cyclopent-1-enyl-8-trifluoromethyl-imidazo[1,2-a]pyridine-2-carbonyl)-piperidin-4-yl]-oxazolidin-2-one] | 0.016 |  | 
9 | O=C(c1nc2c(C(F)(F)F)cc(C3CC3)cn2c1Cl)N1CC[C@H](N2C(=O)COC2=O)[C@@H](O)C1 (racemic) [Compound 224, (±) trans-3-(1-{[3-chloro-6-cyclopropyl-8-(trifluoromethyl)imidazo[1,2-a]pyridin-2-yl]carbonyl}-3-hydroxy-4-piperidinyl)-1,3-oxazolidine-2,4-dione] |  | 0.21 | 1.43
10 | O=C(c1nc2c(C(F)(F)F)cc(-c3cccnc3)cn2c1Cl)N1CCC(N2CCOC2=O)CC1 [Compound 136, 3-(1-{[3-chloro-6-(3-pyridinyl)-8-(trifluoromethyl)imidazo[1,2-a]pyridin-2-yl]carbonyl}-4-piperidinyl)-1,3-oxazolidin-2-one] |  | 1.84 | 0.32
11 | O=C(c1nc2c(C(F)(F)F)cc(-c3cn[nH]c3)cn2c1Cl)N1CCC(N2CCNC2=O)CC1 [Compound 170, 1-(1-{[3-chloro-6-(1H-pyrazol-4-yl)-8-(trifluoromethyl)imidazo[1,2-a]pyridin-2-yl]carbonyl}-4-piperidinyl)-2-imidazolidinone] |  | 1.32 | 8.81
12 | C[C@H]1C[C@@H](N2CCOC2=O)CCN1C(=O)c1nc2c(C(F)(F)F)cc(-c3ccoc3)cn2c1Cl (racemic) [Compound 205, (±) cis-3-(1-{[3-chloro-6-(3-furanyl)-8-(trifluoromethyl)imidazo[1,2-a]pyridin-2-yl]carbonyl}-2-methyl-4-piperidinyl)-1,3-oxazolidin-2-one] |  | 1.76 | 1.07
